The values below come from patent publication US20160319324A1, “MODULATORS OF GLYCEROPHOSPHODIESTER PHOSPHODIESTERASE PROTEINS” (THE JOHNS HOPKINS UNIVERSITY, priority 2013, published 2016).

One experiment concerns the target T1, GDE3 (Homo sapiens, UniProt Q9HCC8).
T1 construct: expressed in transfected cells; host or cells: HEK293T
T1 sequence (Q9HCC8 1-539): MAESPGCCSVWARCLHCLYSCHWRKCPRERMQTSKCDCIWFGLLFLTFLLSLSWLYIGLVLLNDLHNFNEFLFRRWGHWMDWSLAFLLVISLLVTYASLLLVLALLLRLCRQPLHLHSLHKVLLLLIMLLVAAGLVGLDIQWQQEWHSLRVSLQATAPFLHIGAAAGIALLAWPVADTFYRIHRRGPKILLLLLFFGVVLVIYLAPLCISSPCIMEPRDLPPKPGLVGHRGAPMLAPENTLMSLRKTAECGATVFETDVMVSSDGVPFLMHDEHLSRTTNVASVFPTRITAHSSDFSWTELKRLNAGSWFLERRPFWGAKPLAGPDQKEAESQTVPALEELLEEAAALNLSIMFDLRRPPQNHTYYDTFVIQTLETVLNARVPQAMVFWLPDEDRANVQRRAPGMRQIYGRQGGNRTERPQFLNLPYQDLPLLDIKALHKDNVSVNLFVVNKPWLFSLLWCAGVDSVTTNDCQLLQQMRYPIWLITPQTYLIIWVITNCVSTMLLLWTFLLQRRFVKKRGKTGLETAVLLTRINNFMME
The experiment in a line: validation and site of action of candidate drugs from fresh powder by western blot analysis and surface biotinylation assay. Particulars: for expression and localization of CNTFR and GDE3 / release of CNTFR into the medium: 10 μM in 0.1% DMSO, 24 hours treatment; for expression and localization of CNTFR and GDE3: western blot banding pattern and surface biotinylation; for release of CNTFR into the medium: HEK293T cells transfected with Luc-CNTFR and GDE3. In kind it is cell-based. As to the method:
FIG. 10. Validation and identification of the site of action of candidate drugs. Drugs hit by a high-throughput screening were prepared from the fresh powders and their activity was tested by established western blot analysis. […] Concentration of drugs=10 μM.
HEK293T cells were cultured in DMEM with 10% FBS on polyethyleneimine (PEI)-coated 12 well plates and transfected using Fugene6 agent (Roche). 24 hours after transfection, medium was changed to serum free DMEM and cells were incubated for an additional 24 hours. Medium and cell lysates were collected separately, and secretion and expression of proteins were analyzed by western blot and quantified using ImageJ (NIH). Antibodies used in Western analyses were rabbit-anti Jag1 (1:1000, Santa Cruz); rabbit anti-CRD (1:250, gift from Paul Englund) and mouse anti-myc (1.5 μg/ml for IP, DSHB) and as described.
Surface biotinylation assay was performed as previously described (29). Briefly, thirty hours after transfection of HEK293T cells with RECK/GDE and CreER constructs, cells were cooled on ice, washed twice with ice cold PBS++(1×PBS, 1 mM CaCl2, 0.5 mM MgCl2) and then incubated with PBS++ containing 1 mg/ml Sulfo-NHS-SSBiotin (Pierce) for 30 min at 4° C. Unreacted biotin was quenched by PBS++ containing 100 mM Glycine. Cultures were harvested in RIPA buffer, sonicated, and centrifuged at […] for 20 min at 4° C. The supernatant was rotated with Streptavidin beads (Pierce) for 2 hr at 4° C. Precipitates were washed with RIPA buffer three times and eluted with SDS gel loading buffer.
Currently, specific pharmacological modulators for GPI-AP cleavage have not been identified due to poor characterization of GPI-AP cleaving enzymes and the absence of an in vitro assay system. The robust GPI-AP cleaving activity of 6-TM GDEs has allowed the establishment of a luciferase-based, high throughput drug screening assay (signal to noise ratio=44.6; signal to background ratio=7.0; Z′ score=0.6: an excellent assay category). Measuring the GDE3-dependent release of GPI-anchored luciferase into the medium, the present inventors screened 3,360 compounds of the Johns Hopkins Drug library (JHDL), which contains FDA approved and phase II clinical trial drugs. The present inventors have selected common hits, which reduce or increase the release of luciferase activity into the medium more than 3 standard deviations of DMSO controls from duplicated experiments and identified 163 inhibitors (4.9%) and 138 activators (4.1%). Since the assay targets the whole GPI synthesis pathway as well as GPI cleaving activity, it is crucial to identify the site of action. Candidate drugs could modulate different steps of synthesis and cleavage of GPI-APs and will be categorized as follow: drugs activate or inhibit (i) the GPI biosynthesis machinery, (ii) glycosylation, (iii) surface expression of GPI-AP or GDE3, (iv) GPI cleaving activity of GDE, or (v) GPI cleaving-independent secretion of GPI-AP. Among 163 inhibitors, 23 drugs have been prepared from fresh powder stocks and their sites of action were tested by established western blot analyses and results are as follows: 10 drugs (no effect), 9 drugs (reducing surface expression and/or glycosylation of GPI-APs), and 4 drugs (inhibiting GPI-cleaving activity).
JHDL was used to screen drugs that affect the release of Luc-CNTFR into the medium. Drugs that increase or decrease the release index more than 3 SD of 16 DMSO controls of each plate were selected. Common hits of duplicated independent experiments were further analyzed. Among 3,360 drugs screened, we have identified 163 inhibitors and 138 activators. Among 163 inhibitors, 23 compounds were prepared from a fresh powder and their site of action was analyzed (10 μM in 0.1% DMSO, 24 hours treatment). To test whether drugs affect glycosylation and/or surface expression of CNTFR or GDE3, banding pattern of Western blot analysis and surface biotinylation assay were performed (FIG. 10). […]
On the technique in general: In western blotting, separated proteins are transferred to a membrane and probed.

Experiment [1] addresses Luc-CNTFR (firefly) [luciferase: P08659]. The experiment is described as follows: cell-based or functional assay.
[2] abbreviates: Concentration of drugs=10 μM, western blot.

Luc-CNTFR (firefly) [luciferase: P08659], sequence (P08659 whole entry): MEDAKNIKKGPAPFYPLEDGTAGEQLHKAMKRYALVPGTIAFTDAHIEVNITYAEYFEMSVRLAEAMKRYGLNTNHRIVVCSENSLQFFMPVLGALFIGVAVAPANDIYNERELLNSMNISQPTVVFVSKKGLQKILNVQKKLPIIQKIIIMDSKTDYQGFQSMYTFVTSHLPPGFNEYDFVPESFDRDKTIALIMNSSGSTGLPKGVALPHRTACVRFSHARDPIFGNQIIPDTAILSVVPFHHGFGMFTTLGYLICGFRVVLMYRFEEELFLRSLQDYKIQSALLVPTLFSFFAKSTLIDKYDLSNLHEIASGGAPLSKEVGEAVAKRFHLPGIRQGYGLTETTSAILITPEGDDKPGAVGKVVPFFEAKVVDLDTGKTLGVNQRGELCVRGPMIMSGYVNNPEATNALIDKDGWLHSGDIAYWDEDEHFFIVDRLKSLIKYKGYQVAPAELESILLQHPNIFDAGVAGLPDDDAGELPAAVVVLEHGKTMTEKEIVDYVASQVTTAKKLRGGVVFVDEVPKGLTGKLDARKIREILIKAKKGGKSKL

Take `CN1[C@@H]2CC[C@H]1C[C@@H](OC(c1ccccc1)c1ccccc1)C2` [benzotropine]: at GDE3 (setting [2]), the “glycosylation pattern of CNTFR” value was “affect glycosylation pattern of CNTFR”.
Consider `CC[C@H]1OC(=O)[C@H](C)[C@@H](O[C@H]2C[C@@](C)(OC)[C@@H](O)[C@H](C)O2)[C@H](C)[C@@H](O[C@@H]2O[C@H](C)C[C@H](N(C)C)[C@H]2O)[C@](C)(O)C[C@@H](C)C(=O)[C@H](C)[C@@H](O)[C@]1(C)O` [erythromycin], for which the “expression and localization of CNTFR and GDE3” value (“expression and localization” below) on GDE3 is “without affecting expression and localization of CNTFR and GDE3”. For the same compound, on GDE3 (setting [2]), the “lysate level of CNTFR” value is given as “without affecting the lysate level”. Moreover, the “release of CNTFR into the medium” value is recorded as “inhibitor of the release of CNTFR” at GDE3 (western blot) and “inhibits the release of CNTFR” at GDE3 (western blot, listed as Erythromycin).
Regarding `O=C(O)CCC(=O)c1ccc(-c2ccccc2)cc1` [fenbufen], the “release of CNTFR into the medium” value at GDE3 (western blot) is on record as “increase the release of CNTFR into the medium”.
Regarding `COc1c(C)c2c(c(O)c1C/C=C(\C)CCC(=O)O)C(=O)OC2` [mycophenolic acid], the “glycosylation pattern of CNTFR” value on GDE3 (setting [2]) is “affect glycosylation pattern of CNTFR”.
Regarding `CCCCCCCCC(=O)NCc1ccc(O)c(OC)c1` [nonivamide], the “expression and localization” value on GDE3 is “without affecting expression and localization of CNTFR and GDE3”. The “release of CNTFR into the medium” value on GDE3 (western blot) is recorded as “inhibitor of the release of CNTFR”.
As for `COc1ccc(CN(CCN(C)C)c2ccccn2)cc1` [pyrilamine], on GDE3 (western blot), the “release of CNTFR into the medium” value was “increase the release of CNTFR into the medium”.
Consider `N[C@@H](Cc1cc(I)c(Oc2cc(I)c(O)c(I)c2)c(I)c1)C(=O)O` [thyroxine], for which, at GDE3, the “expression and localization” value was “without affecting expression and localization of CNTFR and GDE3”. Besides, the “release of CNTFR into the medium” value on GDE3 (western blot) was “inhibitor of the release of CNTFR”.
For GDE3 (enzyme), the release index (luciferase activity in the medium/cell lysate) in experiment [1] was found to be 7 fold.
Turning to vitamin B12, the “expression and localization” value on GDE3 was “without affecting expression and localization of CNTFR and GDE3”. Also, at GDE3 (western blot), the “release of CNTFR into the medium” value is listed as “inhibitor of the release of CNTFR”.
